Source: ChEMBL document CHEMBL3879907, “8-azabicyclo[3.2.1]octane compounds as mu opioid receptor antagonists” (2014)

Tests used:
[1] = target: Mu-type opioid receptor (Homo sapiens) (UniProt P35372); assay: Intrinsic activity at human mu opioid receptor expressed in CHOK1 cell membranes at 0.00001 to 20 uM after 30 mins by GTP-Eu nucleotide exchange assay relative to DAMGO; assay type: functional; details: CHO-K1
[2] = target: Delta-type opioid receptor (Homo sapiens, UniProt P41143); assay: Displacement of [3H]-diprenorphine from human delta opioid receptor expressed in cell membranes
[3] = target: Kappa-type opioid receptor (Cavia porcellus, UniProt P41144); assay: Displacement of [3H]-diprenorphine from guinea pig kappa opioid receptor expressed in CHOK1 cell membranes; details: cho-k1
Sequence of Kappa-type opioid receptor (P41144 whole entry): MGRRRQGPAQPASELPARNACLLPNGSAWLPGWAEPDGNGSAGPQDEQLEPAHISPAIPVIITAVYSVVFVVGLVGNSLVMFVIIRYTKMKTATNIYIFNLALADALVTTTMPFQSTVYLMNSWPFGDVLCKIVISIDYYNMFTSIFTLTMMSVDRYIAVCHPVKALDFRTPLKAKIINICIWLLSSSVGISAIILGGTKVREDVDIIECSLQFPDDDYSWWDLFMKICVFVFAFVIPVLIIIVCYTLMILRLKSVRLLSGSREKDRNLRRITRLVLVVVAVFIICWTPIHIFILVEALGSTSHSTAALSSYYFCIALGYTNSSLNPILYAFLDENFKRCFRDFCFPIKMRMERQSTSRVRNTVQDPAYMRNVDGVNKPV

Sequence of Delta-type opioid receptor (P41143 whole entry): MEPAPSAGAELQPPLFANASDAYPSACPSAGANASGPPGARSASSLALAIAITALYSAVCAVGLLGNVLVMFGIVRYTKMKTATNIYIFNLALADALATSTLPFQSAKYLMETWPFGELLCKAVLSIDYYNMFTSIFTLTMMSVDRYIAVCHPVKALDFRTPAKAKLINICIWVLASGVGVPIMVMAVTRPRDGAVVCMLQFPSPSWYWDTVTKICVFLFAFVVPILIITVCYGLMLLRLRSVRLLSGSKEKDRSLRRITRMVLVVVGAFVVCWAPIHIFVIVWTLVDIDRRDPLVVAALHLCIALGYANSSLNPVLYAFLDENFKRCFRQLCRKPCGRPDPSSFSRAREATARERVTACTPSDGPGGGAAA
Sequence of Mu-type opioid receptor (Homo sapiens) (P35372 whole entry): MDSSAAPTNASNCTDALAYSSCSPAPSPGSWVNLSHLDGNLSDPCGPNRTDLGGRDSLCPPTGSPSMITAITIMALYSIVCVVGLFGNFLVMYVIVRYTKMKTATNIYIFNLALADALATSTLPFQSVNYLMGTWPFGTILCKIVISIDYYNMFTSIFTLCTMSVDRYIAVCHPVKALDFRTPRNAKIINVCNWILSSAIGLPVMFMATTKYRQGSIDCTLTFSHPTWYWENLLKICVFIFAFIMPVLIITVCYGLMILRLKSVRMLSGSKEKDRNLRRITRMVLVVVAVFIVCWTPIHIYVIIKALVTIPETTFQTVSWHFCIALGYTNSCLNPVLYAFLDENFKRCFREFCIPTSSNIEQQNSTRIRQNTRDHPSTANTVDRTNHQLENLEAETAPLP

Row | Structure (SMILES) | Intrinsic activity [1] [%] | pKi [2] | pKi [3]
1 | NC(=O)c1cccc([C@H]2C[C@H]3CC[C@@H](C2)N3CCN(CC2CCC(F)(F)CC2)C(=O)[C@H](O)CO)c1.O=C(O)C(F)(F)F | < 40 | 7 to 10.5 | 7 to 10.5
2 | CC(CO)(CO)C(=O)N(CCN1[C@@H]2CC[C@H]1C[C@@H](c1cccc(C(N)=O)c1)C2)CC1CCC(F)(F)CC1.O=C(O)C(F)(F)F | < 40 | 7 to 10.5 | 7 to 10.5
3 | C[C@H](O)C(=O)N(CCN1[C@@H]2CC[C@H]1C[C@@H](c1cccc(C(N)=O)c1)C2)Cc1c(F)cccc1F.O=C(O)C(F)(F)F | < 40 | 7 to 10.5 | 7 to 10.5
4 | NC(=O)c1cccc([C@H]2C[C@H]3CC[C@@H](C2)N3CCN(Cc2ccc(F)cc2)C(=O)CO)c1.O=C(O)C(F)(F)F | < 40 | 7 to 10.5 | 7 to 10.5
5 | NC(=O)c1cccc([C@H]2C[C@H]3CC[C@@H](C2)N3CCN(CC(F)(F)c2ccccc2)C(=O)[C@@H](O)CO)c1.O=C(O)C(F)(F)F | < 40 | 7 to 10.5 | 7 to 10.5
6 | CN(C)CCCC(=O)N(CCN1[C@@H]2CC[C@H]1C[C@@H](c1cccc(C(N)=O)c1)C2)CC1CCCCC1 | < 40 | 7 to 10.5 | 7 to 10.5
7 | C[C@H](CN1[C@@H]2CC[C@H]1C[C@@H](c1cccc(O)c1)C2)N(Cc1ccccc1)C(=O)C1CCCCC1 | < 40 | 7 to 10.5 | 7 to 10.5
8 | C[C@H](CN1[C@@H]2CC[C@H]1C[C@@H](c1cccc(O)c1)C2)N(Cc1ccccc1)C(=O)Cc1ccccc1 | < 40 | 7 to 10.5 | 7 to 10.5
9 | C[C@H](CN1[C@@H]2CC[C@H]1C[C@@H](c1cccc(O)c1)C2)N(Cc1ccccc1)C(=O)C1CC1 | < 40 | 7 to 10.5 | 7 to 10.5
10 | CC(C)C[C@H](O)C(=O)N(CCN1[C@@H]2CC[C@H]1C[C@@H](c1cccc(O)c1)C2)CC1CCCCC1 | < 40 | 7 to 10.5 | 7 to 10.5
11 | CC(C)NC(=O)N(CCN1[C@@H]2CC[C@H]1C[C@@H](c1cccc(C(N)=O)c1)C2)CC1CCCCC1 | < 40 | 7 to 10.5 | 7 to 10.5
12 | NC(=O)c1cccc([C@H]2C[C@H]3CC[C@@H](C2)N3CCN(CCC2CCCCC2)C(=O)CO)c1 | < 40 | 7 to 10.5 | 7 to 10.5
13 | COC(=O)CCC(=O)N(CCN1[C@@H]2CC[C@H]1C[C@@H](c1cccc(C(N)=O)c1)C2)CC1CCCCC1 | < 40 | 7 to 10.5 | 7 to 10.5
14 | CCC(CC)C(=O)N(Cc1ccccc1)[C@H](C)CN1[C@@H]2CC[C@H]1C[C@@H](c1cccc(O)c1)C2 | < 40 | 7 to 10.5 | 7 to 10.5
15 | CC(C)(C)C(=O)N(CCN1[C@@H]2CC[C@H]1C[C@@H](c1cccc(C(N)=O)c1)C2)CC1CCCC1.O=C(O)C(F)(F)F | < 40 | 7 to 10.5 | 7 to 10.5
16 | CCCCCNC(=O)N(CCN1[C@@H]2CC[C@H]1C[C@@H](c1cccc(O)c1)C2)CC1CCCCC1 | < 40 | 7 to 10.5 | 7 to 10.5
17 | CN(C)S(=O)(=O)N(CCN1[C@@H]2CC[C@H]1C[C@@H](c1cccc(C(N)=O)c1)C2)Cc1c(F)cccc1F.O=C(O)C(F)(F)F | < 40 | 7 to 10.5 | 7 to 10.5
18 | NC(=O)c1cccc([C@H]2C[C@H]3CC[C@@H](C2)N3CCN(CC2CCCC2)C(=O)[C@@H](O)CO)c1.O=C(O)C(F)(F)F | < 40 | 7 to 10.5 | 7 to 10.5
19 | NC(=O)c1cccc([C@H]2C[C@H]3CC[C@@H](C2)N3CCN(CCCC2CCCCC2)C(=O)CO)c1 | < 40 | 7 to 10.5 | 7 to 10.5
20 | CC(=O)N(CCCN1[C@@H]2CC[C@H]1C[C@@H](c1cccc(C(N)=O)c1)C2)CC1CCCCC1 | < 40 | 7 to 10.5 | 7 to 10.5
21 | C[C@H](CN1[C@@H]2CC[C@H]1C[C@@H](c1cccc(O)c1)C2)N(Cc1ccccc1)C(=O)C1CCCC1 | < 40 | 7 to 10.5 | 7 to 10.5
22 | NC(=O)c1cccc([C@H]2C[C@H]3CC[C@@H](C2)N3CCN(CCc2ccc(F)cc2)C(=O)CO)c1.O=C(O)C(F)(F)F | < 40 | 7 to 10.5 | 7 to 10.5
23 | CS(=O)(=O)Nc1cccc([C@H]2C[C@H]3CC[C@@H](C2)N3CCN(CC2CCCCC2)C(=O)CO)c1 | < 40 | 7 to 10.5 | 7 to 10.5
24 | NC(=O)c1cccc([C@H]2C[C@H]3CC[C@@H](C2)N3CCN(CC2CCCC2)C(=O)[C@H]2CC[C@H](O)CC2)c1.O=C(O)C(F)(F)F | < 40 | 7 to 10.5 | 7 to 10.5
25 | NC(=O)c1cccc([C@H]2C[C@H]3CC[C@@H](C2)N3CCCN(Cc2ccccc2)C(=O)[C@@H](O)CO)c1.O=C(O)C(F)(F)F | < 40 | 7 to 10.5 | 7 to 10.5
26 | O=C(O)CC1(CC(=O)N(CCN2[C@@H]3CC[C@H]2C[C@@H](c2cccc(O)c2)C3)CC2CCCCC2)CCCCC1 | < 40 | 7 to 10.5 | 7 to 10.5

Row | Structure (SMILES) | Intrinsic activity [1] [%] | pKi [2] | pKi [3]
27 | NC(=O)c1cccc([C@H]2C[C@H]3CC[C@@H](C2)N3CCN(CC2CCCCC2)C(=O)CCCO)c1 | < 40 | 7 to 10.5 | 7 to 10.5
28 | CN(C)[C@@H](Cc1ccccc1)C(=O)N(CCN1[C@@H]2CC[C@H]1C[C@@H](c1cccc(C(N)=O)c1)C2)CC1CCCCC1 | < 40 | 7 to 10.5 | 7 to 10.5
29 | CS(=O)(=O)CC(=O)N(CCc1ccc(O)cc1)CCN1[C@@H]2CC[C@H]1C[C@@H](c1cccc(C(N)=O)c1)C2.O=C(O)C(F)(F)F | < 40 | 7 to 10.5 | 7 to 10.5
30 | CC(=O)OCC(=O)N(CCN1[C@@H]2CC[C@H]1C[C@@H](c1cccc(O)c1)C2)Cc1ccccc1.O=C(O)C(F)(F)F | < 40 | 7 to 10.5 | 7 to 10.5
31 | CS(=O)(=O)N(CCN1[C@@H]2CC[C@H]1C[C@@H](c1cccc(C(N)=O)c1)C2)CC1CCCC1.O=C(O)C(F)(F)F | < 40 | 7 to 10.5 | 7 to 10.5
32 | CCN(CC)CC[C@H](O)C(=O)N(CCN1[C@@H]2CC[C@H]1C[C@@H](c1cccc(C(N)=O)c1)C2)CC1CCCCC1 | < 40 | 7 to 10.5 | 7 to 10.5
33 | CS(=O)(=O)CC(=O)N(CCN1[C@@H]2CC[C@H]1C[C@@H](c1cccc(C(N)=O)c1)C2)CC1CCC1.O=C(O)C(F)(F)F | < 40 | 7 to 10.5 | 7 to 10.5
34 | CCCCCNC(=O)N(CCN1[C@@H]2CC[C@H]1C[C@@H](c1cccc(C(N)=O)c1)C2)CC1CCCCC1 | < 40 | 7 to 10.5 | 7 to 10.5
35 | NC(=O)c1cccc([C@H]2C[C@H]3CC[C@@H](C2)N3CCN(Cc2ccccc2)C(=O)C2(O)CC2)c1.O=C(O)C(F)(F)F | < 40 | 7 to 10.5 | 7 to 10.5
36 | N#CCC(=O)N(CCN1[C@@H]2CC[C@H]1C[C@@H](c1cccc(C(N)=O)c1)C2)Cc1ccccc1.O=C(O)C(F)(F)F | < 40 | 7 to 10.5 | 7 to 10.5
37 | CC(C)(CC(=O)O)CC(=O)N(CCN1[C@@H]2CC[C@H]1C[C@@H](c1cccc(O)c1)C2)CC1CCCCC1 | < 40 | 7 to 10.5 | 7 to 10.5
38 | CC(C)(C)C(=O)N(CCN1[C@@H]2CC[C@H]1C[C@@H](c1cccc(C(N)=O)c1)C2)Cc1c(F)cccc1F.O=C(O)C(F)(F)F | < 40 | 7 to 10.5 | 7 to 10.5
39 | O=C(C1CCCCC1)N(CCN1[C@@H]2CC[C@H]1C[C@@H](c1cccc(O)c1)C2)CC1CCCCC1 | < 40 | 7 to 10.5 | 7 to 10.5
40 | CS(=O)(=O)CC(=O)N(CCN1[C@@H]2CC[C@H]1C[C@@H](c1cccc(C(N)=O)c1)C2)Cc1c(F)cccc1F | < 40 | 7 to 10.5 | 7 to 10.5
41 | CN(C)S(=O)(=O)N(CCN1[C@@H]2CC[C@H]1C[C@@H](c1cccc(C(N)=O)c1)C2)CC1CCCCC1.O=C(O)C(F)(F)F | < 40 | 7 to 10.5 | 7 to 10.5
42 | CC(C)CC(=O)N(CCN1[C@@H]2CC[C@H]1C[C@@H](c1cccc(O)c1)C2)Cc1c(F)cccc1F | < 40 | 7 to 10.5 | 7 to 10.5
43 | C[C@H](CN1[C@@H]2CC[C@H]1C[C@@H](c1cccc(O)c1)C2)N(Cc1ccccc1)C(=O)CC1CCCC1 | < 40 | 7 to 10.5 | 7 to 10.5
44 | CC(C)C[C@H](O)C(=O)N(CCN1[C@@H]2CC[C@H]1C[C@@H](c1cccc(C(N)=O)c1)C2)CC1CCCCC1 | < 40 | 7 to 10.5 | 7 to 10.5
45 | CC(C)CC(=O)N(CCN1[C@@H]2CC[C@H]1C[C@@H](c1cccc(O)c1)C2)CC1CCCCC1 | < 40 | 7 to 10.5 | 7 to 10.5
46 | O=C(O)CS(=O)(=O)CC(=O)N(CCN1[C@@H]2CC[C@H]1C[C@@H](c1cccc(O)c1)C2)CC1CCCCC1 | < 40 | 7 to 10.5 | 7 to 10.5
47 | NC(=O)CCC(=O)N(CCN1[C@@H]2CC[C@H]1C[C@@H](c1cccc(O)c1)C2)CC1CCCCC1 | < 40 | 7 to 10.5 | 7 to 10.5
48 | O=C(Nc1cccc(F)c1)N(CCN1[C@@H]2CC[C@H]1C[C@@H](c1cccc(O)c1)C2)CC1CCCCC1 | < 40 | 7 to 10.5 | 7 to 10.5
49 | O=C(O)CC(=O)N(CCN1[C@@H]2CC[C@H]1C[C@@H](c1cccc(O)c1)C2)CC1CCCCC1 | < 40 | 7 to 10.5 | 7 to 10.5
50 | O=C([C@H](O)C1CCCCC1)N(CCN1[C@@H]2CC[C@H]1C[C@@H](c1cccc(O)c1)C2)CC1CCCCC1 | < 40 | 7 to 10.5 | 7 to 10.5
51 | CC(C)(O)C(=O)N(CCN1[C@@H]2CC[C@H]1C[C@@H](c1cccc(C(N)=O)c1)C2)Cc1ccccc1.O=C(O)C(F)(F)F | < 40 | 7 to 10.5 | 7 to 10.5
